Legend:
[1] = biological target: M. smegmatis ribosomes; assay: bacterial coupled transcription/translation assay, luciferase reporter (in vitro translation); format: biochemical; details: for IC50: protein synthesis by in vitro translation reaction, M. smegmatis ribosomes; for IC50 / inhibition of translation of a reporter gene by Mtb ribosomes in vitro / inhibition of luciferase activity compared with chloramphenicol: FIG. 4; for inhibition of translation of a reporter gene by Mtb ribosomes in vitro: dose-dependent; for inhibition of luciferase activity compared with chloramphenicol: luciferase activity vs compound concentration
[2] = tested on: 29mer RNA SEQ ID NO: 1, hairpin 91 of M. tuberculosis PTC; assay: T2 relaxation (CPMG) NMR fragment screen; format: binding

Structure (SMILES)	IC50 [1]	inhibition of translation of a reporter gene by Mtb ribosomes in vitro [1]	inhibition of luciferase activity compared with chloramphenicol [1]	further results
O=C(N[C@H](CO)[C@H](O)c1ccc([N+](=O)[O-])cc1)C(Cl)Cl [chloramphenicol, reference compound]	9.2 µM	–	–	–
CCN1CCN(Cc2csc(-c3ccccc3)n2)CC1 [Compound Nr. 8, 1-ethyl-4-[(2-phenylthiazol-4-yl)methyl]piperazine]	4.8 µM	inhibit translation of a reporter gene	about twice as better than both	–
NCc1csc(-c2cccc(Cl)c2)n1 [[2-(3-chlorophenyl)-1,3-thiazol-4-yl]methanamine]	–	–	–	change in T2 upon addition of RNA ([2]; pool 81, peaks 1-3, 1D CPMG spectra, FIG. 7A): largest change in T2
Cc1nc(CN2CCN(Cc3csc(-c4ccccc4)n3)CC2)cs1 [Compound Nr. 2, 1-[(2-methylthiazol-4-yl)methyl]-4-[(2-phenylthiazol-4-yl)methyl]piperazine]	8.9 µM	inhibit translation of a reporter gene	as effective inhibitor of luciferase activity as chloramphenicol	inhibition activity compared among compounds ([1]; Nr. 2 compared to compounds Nr. 3, 4 and 5, data not shown): higher inhibition activity
CNCc1ccc(-c2nccs2)cc1 [N-methyl-4-(1,3-thiazol-2-yl)benzylamine]	–	–	–	hit in T2-edited (CPMG NMR) mini-screen ([2]; pool number 2 of three pools of 10 fragments, with and without target RNA, FIG. 3): hits

— patent publication US20220055997A1, “ANTIMICROBIAL COMPOUNDS AND COMPOSITIONS COMPRISING SAME” (B.G. NEGEV TECHNOLOGIES AND APPLICATIONS LTD., AT …, priority 2019, published 2022)
